Experiment: Inhibition of ACAT2 (unknown origin)

Work on `COc1ccc([C@@H]2O[C@H](c3ccc(OC(C)C(O)c4ccc5c(c4)COC5)c(OC)c3)[C@H](C)[C@@H]2C)cc1OC` (stereo partly specified) yielded an IC50 of 124 µM.
